Measurements published in US20260232666A1, “COMPOSITIONS AND METHODS FOR INHIBITION OF RAS” (TheRas, Inc., priority 2023, published 2026).

Assays:
[1] = target: T1, Avi-KRAS G12C (1-169) GppNHp/RAF1 RBD-3×FLAG (52-151) (Homo sapiens, UniProt P01116, G12C); assay: Raf1 RBD-KRAS G12C-GppNHp disruption assay (protein:protein interaction HTRF); assay type: biochemical
T1 construct: Avi-KRAS G12C (1-169) GppNHp; Avi (N)
Procedure: Biological Example 2: Disrupting KRAS G12C-Effector Binding (Protein: Protein Interaction HTRF Assay)
A protein: protein interaction (PPI) Homogeneous Time Resolved Fluorescence (HTRF) assay was used to determine the effectiveness of compounds of the present disclosure in disrupting KRAS G12C protein and effector (RAF1 Ras Binding Domain (RBD)) binding.
The HTRF assay used the following reagents and proteins: 50 nM Avi-KRAS G12C (1-169) GppNHp/RAF1 RBD-3×FLAG (52-151); 35 nM Avi-PI3K RBD-3×FLAG; Assay Buffer: 50 mM Tris pH 7.5, 100 mM NaCl, 5 mM MgCl2, 0.1% BSA, 0.01% Tween 20, 10% DMSO; Bead Buffer: 50 mM Tris pH 7.5, 0.01% Tween 20; Assay volume: 20 μL (384 well plate-low volume format); and Compound titration: 30-0.02 μM, 3× dilution series.
The HTRF assay employed the following protocol:
Compounds were dispensed in assay plate (384-well, Grenier Bio-One #784075) using Echo (model 555) with dose response settings: 200 nL final volume, titration from 100 μM as a 10-point dilution series. KRAS proteins were prepared in assay buffer, and dispensed on plates, 5 μL per well, then incubated for 1 h at room temperature, with 700 rpm shaking. RAF1 RBD were prepared in assay buffer, dispensed onto plates, 5 μL per well, and then incubated for 1 h at room temperature, with 700 rpm shaking. Reagent mix was then prepared and dispensed on plates, 10 μL per well, and then incubated for 1 h at room temperature, with 700 rpm shaking.
Plates were analyzed on an Envision plate reader using the following setting: Excitation 320 nm, Bandwidth 75 nm; Emission 615 nm, Bandwidth 85 nm; Gain 100%; Flashes 100; Lag 60 μs. Data was reported as percentage of activity, with DMSO as 100%. Data was plotted and analyzed using Prism 8.
The percent of modification of GppNHp, GTP, or GDP loaded KRAS G12C by MALDI-TOF MS, biochemical Raf1 RBD-KRAS G12C-GppNHp disruption assay IC50, and pERK inhibition IC50 of selected compounds described herein are shown in Table 4. For percent of modification at 15 minutes (MALDI-TOF MS) of GppNHp, GTP, or GDP loaded KRAS G12C: A: percent of modification ≥70%; B: 50≤percent of modification <70%; C: 10%≤percent of modification <50%; D: percent of modification <10%. […] For pERK inhibition in H358 cell assay: A: IC50≤0.1 μM; B: 0.1 μM<IC50≤1 μM; C: IC50>1 μM. Blanks in the table represent that compound was not tested in the indicated assay.

pERK in NCI-H358 cells = assay: Cell-based pERK HTRF assay (pERK inhibition in H358 cells); conditions: 30 min incubation
How it was run: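 NCI-H358 cells were seeded at 4×10^4 cells/well in RPMI/10% FBS, then treated next day for 30 min at 0.25% DMSO (9-point, 3-fold series from 75 μM). Lysates were read by HTRF (d2/Eu cryptate antibody pair, 615 nm emission) after 4–24 h at room temperature to give pERK IC50.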

T1 sequence (P01116 1-169 isoform P01116-2 G12C limits assumed): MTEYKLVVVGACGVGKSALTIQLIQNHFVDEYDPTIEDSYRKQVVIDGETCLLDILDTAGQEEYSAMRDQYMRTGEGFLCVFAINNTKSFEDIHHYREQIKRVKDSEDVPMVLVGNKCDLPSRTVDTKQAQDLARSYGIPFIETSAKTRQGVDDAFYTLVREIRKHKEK

Row | Compound | IC50 [1] [µM] | IC50 (pERK in NCI-H358 cells; Homo sapiens, NCI-H358, 0.5 h) [µM] | IC50 (pERK in NCI-H358 cells) [µM]
1 | C=CC(=O)N1C[C@H](C)N(c2nc(OC[C@@]34CCCN3C[C@H](F)C4)nc3c(F)c(-c4ccc(F)c5sc(N)c(C#N)c45)c(Cl)cc23)C[C@H]1C (atropisomer, axis not shown) [Compound 102] | < 0.5 | < 0.1 | 
2 | C=CC(=O)N1C[C@H](C)N(c2nc(OC[C@@]34CCCN3C[C@H](F)C4)nc3c(F)c(-c4ccc(F)c5sc(N)c(C#N)c45)c(Cl)cc23)C[C@H]1C (atropisomer, axis not shown) [Compound 103] | 5 to 20 |  | 0.1 to 1
3 | C=CC(=O)N1CC[C@@H](N(CC)c2nc(OC[C@@H]3C[C@@H](F)CN3C)nc3c(F)c(-c4ccc(F)c5sc(N)c(C#N)c45)c(C(F)(F)F)cc23)[C@H]1C (atropisomer, axis not shown) [Compound 114] | 5 to 20 |  | > 1
4 | C=CC(=O)N1CC[C@@H](N(C)c2nc(OC[C@@H]3CCCN3C)nc3c(F)c(-c4ccc(F)c5sc(N)c(C#N)c45)c(Cl)cc23)[C@H]1C (atropisomer, axis not shown) [Compound 118] | < 0.5 |  | < 0.1
5 | C=CC(=O)N1CC[C@@H](N(C)c2nc(OC[C@@H]3CCCN3C)nc3c(F)c(-c4ccc(F)c5sc(N)c(C#N)c45)c(Cl)cc23)[C@H]1C (atropisomer, axis not shown) [Compound 119] | 5 to 20 |  | > 1
6 | C=CC(=O)N1CC[C@@H](N(CC)c2nc(OC[C@@H]3CC4(CC4)CN3C)nc3c(F)c(-c4ccc(F)c5sc(N)c(C#N)c45)c(Cl)cc23)[C@H]1C (atropisomer, axis not shown) [Compound 120] | < 0.5 |  | < 0.1
7 | C=CC(=O)N1CC[C@@H](N(C)c2nc(OC[C@@H]3CCCN3C)nc3c(F)c(-c4ccc(F)c5sc(N)c(C#N)c45)c(C(F)(F)F)cc23)[C@H]1C (atropisomer, axis not shown) [Compound 132] | 5 to 20 |  | > 1
8 | C=CC(=O)N1CC[C@H](N(CC)c2nc(OC[C@@]34CCCN3C[C@H](F)C4)nc3c(F)c(-c4ccc(F)c5sc(N)c(C#N)c45)c(C(F)(F)F)cc23)C1 (atropisomer, axis not shown) [Compound 171] | < 0.5 | < 0.1 | 
9 | C=CC(=O)N1C[C@H](N(C)c2nc(OC[C@@]34CCCN3C[C@H](F)C4)nc3c(F)c(-c4ccc(F)c5sc(N)c(C#N)c45)c(C(F)(F)F)cc23)C[C@H]1C (atropisomer, axis not shown) [Compound 177] | 0.5 to 5 |  | 0.1 to 1
10 | C=CC(=O)N1CC[C@@H](N(C)c2nc(OC[C@@H]3C[C@@H](OC)CN3C)nc3c(F)c(-c4ccc(F)c5sc(N)c(C#N)c45)c(C(F)(F)F)cc23)[C@H]1C (single isomer, unassigned) [Compound 172] | < 0.5 | < 0.1 | 
11 | C=CC(=O)N1CC[C@@H](N(C)c2nc(OC[C@H]3C[C@@H](OC)CN3C)nc3c(F)c(-c4ccc(F)c5sc(N)c(C#N)c45)c(C(F)(F)F)cc23)[C@H]1C (single isomer, unassigned) [Compound 173] | < 0.5 | < 0.1 | 
12 | C=CC(=O)N1CC[C@@H](N(C)c2nc(OC[C@@H]3C[C@@H](OC)CN3C)nc3c(F)c(-c4ccc(F)c5sc(N)c(C#N)c45)c(C(F)(F)F)cc23)[C@H]1C (single isomer, unassigned) [Compound 174] | 0.5 to 5 |  | 0.1 to 1
13 | C=CC(=O)N1CC[C@@H](N(C)c2nc(OC[C@H]3C[C@@H](OC)CN3C)nc3c(F)c(-c4ccc(F)c5sc(N)c(C#N)c45)c(C(F)(F)F)cc23)[C@H]1C (single isomer, unassigned) [Compound 175] | 5 to 20 |  | 0.1 to 1
14 | C=CC(=O)N1CC[C@@H](N(C)c2nc(OC[C@@]34CCCN3C[C@H](F)C4)nc3c(F)c(-c4ccc(F)c5sc(N)c(C#N)c45)ccc23)[C@H]1CC [Compound 4] | < 0.5 | < 0.1 | 
15 | C=CC(=O)N1CCC(N(C)c2nc(OC[C@@]34CCCN3C[C@H](F)C4)nc3cc(-c4ccc(F)c5sc(N)c(C#N)c45)c(C#N)cc23)[C@H]1CC (stereo partly shown) [Compound 7] | < 0.5 | < 0.1 | 
16 | C=CC(=O)N1CCC(N(C)c2nc(OC[C@@H]3CCCN3C)nc3c(F)c(-c4nc(N)cc(C)c4C(F)(F)F)c(Cl)cc23)[C@H]1C (stereo partly shown) [Compound 9] | < 0.5 | 0.1 to 1 | 
17 | C=CC(=O)N1CCC(N(CC)c2nc(OC[C@@]34CCCN3C[C@H](F)C4)nc3c(F)c(-c4ccc(F)c5sc(N)c(C#N)c45)ccc23)[C@H]1CC (stereo partly shown) [Compound 11] | < 0.5 | 0.1 to 1 | 
18 | C=CC(=O)N1CCC(N(CC)c2nc(OC[C@@]34CCCN3C[C@H](F)C4)nc3c(F)c(-c4ccc(F)c5sc(N)c(C#N)c45)c(Cl)cc23)[C@H]1CC (stereo partly shown) [Compound 12] | < 0.5 | < 0.1 | 
19 | C=CC(=O)N1CCC(N(CC)c2nc(OC[C@@]34CCCN3C[C@H](F)C4)nc3cc(-c4ccc(F)c5sc(N)c(C#N)c45)c(C#N)cc23)[C@H]1CC (stereo partly shown) [Compound 14] | < 0.5 | 0.1 to 1 | 

Further lines, results first:

Row | IC50 [1] [µM] | IC50 (pERK in NCI-H358 cells; Homo sapiens, NCI-H358, 0.5 h) [µM] | IC50 (pERK in NCI-H358 cells) [µM] | Compound
20 | < 0.5 | < 0.1 |  | C=CC(=O)N1CC[C@@H](N(C)c2nc(OC[C@@H]3CC4(CC4)CN3C)nc3c(F)c(-c4ccc(F)c5sc(N)c(C#N)c45)c(C(F)(F)F)cc23)[C@@H]1C (atropisomer, axis not shown) [Compound 111]
21 | < 0.5 |  | < 0.1 | C=CC(=O)N1CC[C@@H](N(CC)c2nc(OC[C@@H]3C[C@@H](F)CN3C)nc3c(F)c(-c4ccc(F)c5sc(N)c(C#N)c45)c(C(F)(F)F)cc23)[C@H]1C (atropisomer, axis not shown) [Compound 113]
22 | 5 to 20 |  | > 1 | C=CC(=O)N1CC[C@@H](N(CC)c2nc(OC[C@@H]3CC4(CC4)CN3C)nc3c(F)c(-c4ccc(F)c5sc(N)c(C#N)c45)c(Cl)cc23)[C@H]1C (atropisomer, axis not shown) [Compound 121]
23 | < 0.5 |  | < 0.1 | C=CC(=O)N1CC[C@@H](N(C)c2nc(OC[C@@H]3CCCN3C)nc3c(F)c(-c4ccc(F)c5sc(N)c(C#N)c45)c(C(F)(F)F)cc23)[C@H]1C (atropisomer, axis not shown) [Compound 131]
24 | < 0.5 | < 0.1 |  | C=CC(=O)N1C[C@H](N(C)c2nc(OC[C@@]34CCCN3C[C@H](F)C4)nc3c(F)c(-c4ccc(F)c5sc(N)c(C#N)c45)c(C(F)(F)F)cc23)C[C@H]1C (atropisomer, axis not shown) [Compound 176]
25 | < 0.5 |  | < 0.1 | C=CC(=O)N1CC[C@@H](N(CC)c2nc(OC[C@@H]3C[C@@H](OC)CN3C)nc3c(F)c(-c4ccc(F)c5sc(N)c(C#N)c45)c(C(F)(F)F)cc23)[C@H]1C (single isomer, unassigned) [Compound 116]
26 | 5 to 20 |  | > 1 | C=CC(=O)N1CC[C@@H](N(CC)c2nc(OC[C@@H]3C[C@@H](OC)CN3C)nc3c(F)c(-c4ccc(F)c5sc(N)c(C#N)c45)c(C(F)(F)F)cc23)[C@H]1C (single isomer, unassigned) [Compound 117]
27 | < 0.5 | < 0.1 |  | C=CC(=O)N1CCC(N(CC)c2nc(OC[C@@]34CCCN3C[C@H](F)C4)nc3c(F)c(-c4ccc(F)c5sc(N)c(C#N)c45)c(C(F)(F)F)cc23)[C@H]1CC (stereo partly shown) [Compound 8]
28 | < 0.5 | < 0.1 |  | C=CC(=O)N1CCC(N(C)c2nc(OC[C@@]34CCCN3C[C@H](F)C4)nc3c(F)c(-c4nc(N)cc(C)c4C(F)(F)F)c(Cl)cc23)[C@H]1C (stereo partly shown) [Compound 10]
29 | < 0.5 | < 0.1 |  | C=CC(=O)N1CC[C@@H](N(CC)c2nc(OC[C@@]34CCCN3C[C@H](F)C4)nc3c(F)c(-c4ccc(F)c5sc(N)c(C#N)c45)ccc23)[C@H]1C [Compound 17, 4-(4-(((2R,3R)-1-acryloyl-2-methylpyrrolidin-3-yl)(ethyl)amino)-8-fluoro-2-(((2R,7aS)-2-fluorotetrahydro-1H-pyrrolizin-7a(5H)-yl)methoxy)quinazolin-7-yl)-2-amino-7-fluorobenzo[b]thiophene-3-carbonitrile]
